# Source: patent US4238390A, “Synthesis and biological activity of [D-Thr^2, Δ^3 Pro^5 ]-enkephalinamide” (Hoffmann-La Roche Inc., priority 1979, dated 1980)
# Square brackets hold non-standard residues; d marks the D form. Peptide text beside a SMILES is read from it. ΔPro = O=C(O)[C@@H]1C=CCN1
# Legend:
# [1] = cited from earlier work; for analgesic activity (in words): prior-art report
# 5-HTP Diarrhea = assay: Anti-diarrhea activity against 5-HTP diarrhea in CD-1 mice (comparative tests); assay type: in vivo, Male CD-1 mice; conditions: for anti-diarrhea activity (in words): intravenously at a dose of 132 μ moles/kg
# Experimental: (§1) The anti-diarrhea ED50 values were determined using a computer program "ED50" based on the probit method of D. J. Finney, "Probit Analysis", Cambridge University Press, Cambridge, Great Britain (1971). The average percent inhibition obtained at each dose level of [D-Thr^2, Δ^3 Pro^5 ]-enkephalinamide was used as the response.
# Male CD-1 mice were obtained from Charles River, Inc., Wilmington, Massachusetts, and weighted between 18 and 25 grams at the time of use.
# All compounds with the exception of 5-HTP were dissolved in sterile 0.9% sodium chloride solution. Distilled water was used as the vehicle for 5-HTP. All compounds were administered to the mice using a constant dosage volume of 0.2 ml/20 gms of body weight.
# In the experiment involving naloxone HCl, it or the vehicle were given 5 minutes prior to the administration of β-endorphin.
# The amount of diarrhea produced by 5-HTP was determined as follows. Immediately following the administration of 5-HTP, the mice were individually housed in open-bottomed wire cages of a width and length of 8.5 cm and a height of 7.5 cm, resting on preweighed plastic sheets. The mice were removed from the cages 30 minutes after receiving 5-HTP, and any visible urinary discharge present on the plastic sheet was blotted dry. The sheets were then reweighed. The weight increment was considered to represent fecal weight.
# Guinea Pig Ileum = assay: Opiate activity in guinea pig ileum assay; assay type: cell-based
# Experimental: The opiate activity of [2-D-threonine, 5-(3,4-dehydroproline)]-enkephalinamide was measured according to the method of H. W. Kosterelitz, R. J. Lydon and H. A. Watt, British Journal of Pharmacology, volume 39 (1970), pp. 398-413. The results of the assay are shown in Table II and are compared with the opiate activities for human β-endorphin and Met-enkephaline.
# [2] = system: 5-hydroxytryptophan-induced diarrhea; assay: Anti-diarrhea activity against 5-hydroxytryptophan-induced diarrhea in CF-1 mice; assay type: in vivo, Male CF-1 mice; conditions: for Mean Fecal Wt. (mg) + S.E.: 30 s before 10 mg/kg 5-HTP ip, 30-minute test period
# Experimental: Male CF-1 mice were used. The mice were housed at least one week prior to use. At the time of use, the mice were 49 days of age and weighed between 21-25 grams. The mice received, intravenously, vehicle, or the indicated amounts of, [D-Thr^2, Δ^3 Pro^5 ]enkephalinamide dissolved in sterile 0.9% sodium chloride. Thirty seconds later, 10 mg/kg of DL-5-hydroxytryptophan was administered intraperitoneally using distilled water as the vehicle. The mice were then immediately placed in individual open-bottomed wire cages resting on preweighed parafilm sheets. The mice were removed from their cages 30 minutes after receiving the DL-5-hydroxytryptophan. Any fecal material adhering to the sides of the wire cage was collected and placed on the parafilm sheets, and any visible urine on the sheets was blotted dry. The sheets were weighed, and the weight increment was considered to represent the amount of feces discharged during the 30-minute test period.
# as §1
# [3] = iv, 30 seconds prior to 10 mg/kg 5-HTP ip
compound,measurement,setting,value
"[D-Met^2, Pro^5 ]-enkephalinamide [D-Met^2 -Pro^5 -Enkephalin-Amide]",analgesic activity (in words),[1],potent analgesic agent
same,% Inhibition of 5-HTP Diarrhea ± S.E.,5-HTP Diarrhea; 0.20 μmoles/kg iv,1.7 ± 13.2%
same,% Inhibition of 5-HTP Diarrhea ± S.E.,5-HTP Diarrhea; 0.60 μmoles/kg iv,32.3 ± 13.4%
same,% Inhibition of 5-HTP Diarrhea ± S.E.,5-HTP Diarrhea; 1.20 μmoles/kg iv,36.9 ± 11.0%
same,% Inhibition of 5-HTP Diarrhea ± S.E.,5-HTP Diarrhea; 2.40 μmoles/kg iv,66.0 ± 7.6%
same,% Inhibition of 5-HTP Diarrhea ± S.E.,5-HTP Diarrhea; 4.30 μmoles/kg iv,88.6 ± 7.7%
same,Anti-Diarrhea ED50 ± S.E.,5-HTP Diarrhea; [3],1.38 ± 0.310 µmol/kg
"[D-Thr^2, Thz^5 ]-enkephalinamide",analgesic activity (in words),[1],potent analgesic agents
Leu-Enkephalin,% Inhibition of 5-HTP Diarrhea ± S.E.,5-HTP Diarrhea; 66 μmoles/kg iv,0.0 ± 13.1%
same,% Inhibition of 5-HTP Diarrhea ± S.E.,5-HTP Diarrhea; 132 μmoles/kg iv,10.4 ± 7.7%
same,anti-diarrhea activity (in words),5-HTP Diarrhea,only weak anti-diarrhea activity
same,Anti-Diarrhea ED50 ± S.E.,5-HTP Diarrhea; [3],> 132 µmol/kg
"[D-Ala^2, MePhe^4, MetO^5 -ol] enkephalin",oral activity (in words),"[1]; Roemer et al., Nature 268, 547 (1977)",orally active
same,analgesic activity (in words),[1],most potent analgesic of the group
"[D-Met^2, Thz^5 ]-enkephalinamide",analgesic activity (in words),[1],potent analgesic agents
Met-Enkephalin,% Inhibition of 5-HTP Diarrhea ± S.E.,5-HTP Diarrhea; 66 μmoles/kg iv,21.3 ± 15.9%
same,% Inhibition of 5-HTP Diarrhea ± S.E.,5-HTP Diarrhea; 132 μmoles/kg iv,23.7 ± 9.6%
same,anti-diarrhea activity (in words),5-HTP Diarrhea,only weak anti-diarrhea activity
same,Anti-Diarrhea ED50 ± S.E.,5-HTP Diarrhea; [3],> 132 µmol/kg
same,IC50,Guinea Pig Ileum,124 nM
same,Relative Potency,Guinea Pig Ileum; human β-endorphin = 100,25
"C[C@H](O)[C@@H](NC(=O)[C@@H](N)Cc1ccc(O)cc1)C(=O)NCC(=O)N[C@@H](Cc1ccccc1)C(=O)N1CC=C[C@H]1C(N)=O [[D-Thr^2, Δ^3 Pro^5]-enkephalinamide, [2-D-threonine, 5-(3,4-dehydroproline)]-enkephalinamide] (H-Y[dT]GF[ΔPro]-NH2)",Mean Fecal Wt. (mg) + S.E.,[2]; 1.2 μm/kg iv,117.3 ± 11.06 mg
same,% Inhibition,"[2]; 1.2 μm/kg iv, 5-HTP 10 mg/kg ip",34.6%
same,Mean Fecal Wt. (mg) + S.E.,[2]; 3.60 μm/kg iv,80.1 ± 22.43 mg
same,% Inhibition,"[2]; 3.60 μm/kg iv, 5-HTP 10 mg/kg ip",55.3%
same,Mean Fecal Wt. (mg) + S.E.,[2]; 12.05 μm/kg iv,49.8 ± 14.44 mg
same,% Inhibition,"[2]; 12.05 μm/kg iv, 5-HTP 10 mg/kg ip",72.2%
same,Mean Fecal Wt. (mg) + S.E.,[2]; 24.10 μm/kg iv,37.9 ± 12.81 mg
same,% Inhibition,"[2]; 24.10 μm/kg iv, 5-HTP 10 mg/kg ip",78.9%
same,inhibition of 5-hydroxytryptophan-induced diarrhea (in words),[2]; by intravenous injection,potent agent
same,ED50 μm/kg + S.E.,"[2]; iv, probit method, 5-HTP 10 mg/kg ip",2.9 ± 1.74 μm/kg
same,IC50,Guinea Pig Ileum,9.3 nM
same,Relative Potency,"Guinea Pig Ileum; human β-endorphin = 100, 5-(3,4-dehydroproline)]-enkephalinamide",330
same,Relative Potency,"Guinea Pig Ileum; human β-endorphin = 100, listed as Tyr-D-Thr-Gly-Phe-Δ Pro-NH2",336
CN1CC[C@]23c4c5ccc(O)c4O[C@H]2[C@@H](O)C=C[C@H]3[C@H]1C5.O=S(=O)(O)O [Morphine Sulfate],prevention of 5-HTP diarrhea (in words),5-HTP Diarrhea; intravenously or subcutaneously administered,effective in preventing this diarrhea
Human β-Endorphin,% Inhibition of 5-HTP Diarrhea ± S.E.,5-HTP Diarrhea; 0.43 μmoles/kg iv,25.6 ± 16.1%
same,% Inhibition of 5-HTP Diarrhea ± S.E.,5-HTP Diarrhea; 0.86 μmoles/kg iv,46.6 ± 16.0%
same,% Inhibition of 5-HTP Diarrhea ± S.E.,5-HTP Diarrhea; 1.0 μmoles/kg sc,35.3 ± 14.2%
same,% Inhibition of 5-HTP Diarrhea ± S.E.,5-HTP Diarrhea; 1.73 μmoles/kg iv,58.3 ± 12.6%
same,% Inhibition of 5-HTP Diarrhea ± S.E.,5-HTP Diarrhea; 3.0 μmoles/kg sc,51.7 ± 9.9%
same,% Inhibition of 5-HTP Diarrhea ± S.E.,5-HTP Diarrhea; 3.46 μmoles/kg iv,62.2 ± 10.3%
same,% Inhibition of 5-HTP Diarrhea ± S.E.,5-HTP Diarrhea; 6.0 μmoles/kg sc,61.0 ± 6.9%
same,% Inhibition of 5-HTP Diarrhea ± S.E.,5-HTP Diarrhea; 6.92 μmoles/kg iv,66.4 ± 8.0%
same,% Inhibition of 5-HTP Diarrhea ± S.E.,5-HTP Diarrhea; 9.0 μmoles/kg sc,70.3 ± 8.7%
same,% Inhibition of 5-HTP Diarrhea ± S.E.,5-HTP Diarrhea; 13.84 μmoles/kg iv,92.2 ± 4.8%
same,Anti-Diarrhea ED50 ± S.E.,5-HTP Diarrhea; [3],1.42 ± 0.636 µmol/kg
same,Anti-Diarrhea ED50 ± S.E.,"5-HTP Diarrhea; sc, 1 minute prior to 10 mg/kg 5-HTP ip",2.65 ± 1.425 µmol/kg
same,IC50,Guinea Pig Ileum,31 nM
same,Relative Potency,Guinea Pig Ileum; human β-endorphin = 100,100
